Experimental data as given in publication PMC6332430, “Design, Synthesis and Biological Evaluation of Novel Substituted N,N′-Diaryl ureas as Potent p38 Inhibitors” (Molecules, 2015).
Where two headings read alike, the source gives them in different places.

Experiments:
Experiment in all cases: TR-FRET kinase assay, GFP-ATF2 ([…]-96) phosphorylation
Type in all cases: biochemical
MAPK14/p38α [1] = target: T1, MAPK14/p38α (Homo sapiens, UniProt Q16539)
p38γ = target: T2, p38γ (Homo sapiens, UniProt P53778)
T2 construct: gene MAPK12
T2 sequence (P53778 1-367): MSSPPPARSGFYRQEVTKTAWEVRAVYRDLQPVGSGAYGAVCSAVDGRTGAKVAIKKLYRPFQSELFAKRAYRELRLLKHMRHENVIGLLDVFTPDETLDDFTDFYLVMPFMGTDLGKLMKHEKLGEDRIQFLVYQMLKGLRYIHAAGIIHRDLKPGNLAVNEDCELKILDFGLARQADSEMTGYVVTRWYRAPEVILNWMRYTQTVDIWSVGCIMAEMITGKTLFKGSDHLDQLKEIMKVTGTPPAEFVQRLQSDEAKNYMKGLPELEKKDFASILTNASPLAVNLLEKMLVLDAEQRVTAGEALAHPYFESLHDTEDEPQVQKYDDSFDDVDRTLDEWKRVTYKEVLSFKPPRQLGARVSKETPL

p38δ = target: T3, p38δ (Homo sapiens, UniProt O15264)
T3 construct: gene MAPK13
T3 sequence (O15264 1-365): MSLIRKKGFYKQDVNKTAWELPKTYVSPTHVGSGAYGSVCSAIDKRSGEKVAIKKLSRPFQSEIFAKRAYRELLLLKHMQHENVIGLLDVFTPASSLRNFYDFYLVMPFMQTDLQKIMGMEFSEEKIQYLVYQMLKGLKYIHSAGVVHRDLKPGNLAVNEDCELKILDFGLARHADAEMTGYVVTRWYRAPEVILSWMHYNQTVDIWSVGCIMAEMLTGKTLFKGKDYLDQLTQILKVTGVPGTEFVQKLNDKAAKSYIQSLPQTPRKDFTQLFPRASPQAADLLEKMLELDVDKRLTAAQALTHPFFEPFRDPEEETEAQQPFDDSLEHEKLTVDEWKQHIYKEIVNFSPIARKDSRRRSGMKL

MAPK14/p38α [2] = target: T1, MAPK14/p38α; details: 90 μM ATP, 0.4 μM GFP-ATF2, 10 mM MgCl2, pH 7.5, RT, 15 min preincubation; unreliable (the two tables disagree)
p38β = target: T4, p38β (Homo sapiens, UniProt Q15759)
T4 construct: gene MAPK11
T4 sequence (Q15759 whole entry): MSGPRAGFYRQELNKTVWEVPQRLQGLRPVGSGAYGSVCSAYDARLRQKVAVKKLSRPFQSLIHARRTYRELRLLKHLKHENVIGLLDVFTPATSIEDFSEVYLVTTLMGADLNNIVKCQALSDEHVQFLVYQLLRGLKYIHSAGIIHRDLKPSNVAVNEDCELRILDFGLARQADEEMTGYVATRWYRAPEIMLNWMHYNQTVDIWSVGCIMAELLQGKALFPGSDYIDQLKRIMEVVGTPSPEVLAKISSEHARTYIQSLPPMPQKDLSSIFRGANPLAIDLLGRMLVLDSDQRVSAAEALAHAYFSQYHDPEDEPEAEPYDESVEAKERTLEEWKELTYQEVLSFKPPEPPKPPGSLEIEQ

T1 sequence (Q16539 2-360): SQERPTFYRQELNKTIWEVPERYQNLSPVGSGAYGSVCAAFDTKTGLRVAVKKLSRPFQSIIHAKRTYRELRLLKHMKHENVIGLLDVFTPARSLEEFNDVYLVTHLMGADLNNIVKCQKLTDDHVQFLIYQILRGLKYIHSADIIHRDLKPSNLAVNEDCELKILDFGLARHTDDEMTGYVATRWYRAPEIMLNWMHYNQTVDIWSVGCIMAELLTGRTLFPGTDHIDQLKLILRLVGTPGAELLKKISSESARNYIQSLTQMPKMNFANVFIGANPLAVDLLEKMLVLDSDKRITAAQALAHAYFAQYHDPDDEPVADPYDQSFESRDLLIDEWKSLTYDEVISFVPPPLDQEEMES

| Compound | IC50 (MAPK14/p38α [1]) [nM] | other results |
| --- | --- | --- |
| Cc1ccc(-n2nc(C(C)(C)C)cc2NC(=O)NCc2ccccc2Oc2ccc3nc(NC(=O)NC4CCCCC4)sc3c2)cc1 [9f, 1-(3-(Tert-butyl)-1-(p-tolyl)-1H-pyrazol-5-yl)-3-(2-((2-(3-cyclohexylureido)benzo[d]thiazol-6-yl)oxy)benzyl)urea] | 4.499 ± 0.04 | – |
| CCNC(=O)Nc1nc2ccc(Oc3ccc(F)cc3CNC(=O)Nc3cc(C(C)(C)C)nn3-c3ccc(C)cc3)cc2s1 [9g, 1-(3-(Tert-butyl)-1-(p-tolyl)-1H-pyrazol-5-yl)-3-(2-((2-(3-ethylureido)benzo[d]thiazol-6-yl)oxy)-5-fluorobenzyl)urea] | – | IC50 (p38γ): 424 ± 5.75 nM; IC50 (p38δ): 948.4 ± 8.35 nM; p38α IC50 (nM) ^a (MAPK14/p38α [2]): 0.844 ± 1.04 nM; IC50 (p38β): 20.1 ± 1.4 nM |
| CCNC(=O)Nc1nc2ccc(Oc3ccccc3CNC(=O)Nc3cc(C(C)(C)C)nn3-c3ccc(C)cc3)cc2s1 [9d, 1-(3-(Tert-butyl)-1-(p-tolyl)-1H-pyrazol-5-yl)-3-(2-((2-(3-ethylureido)benzo[d]thiazol-6-yl)oxy)benzyl)urea] | 1.5 ± 0.24 | IC50 (p38γ): 191 ± 7.2 nM; IC50 (p38δ): 231 ± 7.15 nM; IC50 (p38β): 17.5 ± 1.25 nM |
| Cc1ccc(-n2nc(C(C)(C)C)cc2NC(=O)NCc2cc(F)ccc2Oc2ccc3nc(N)sc3c2)cc1 [8b, 1-(2-((2-Aminobenzo[d]thiazol-6-yl)oxy)-5-fluorobenzyl)-3-(3-(tert-butyl)-1-(p-tolyl)-1H-pyrazol-5-yl)urea] | 1.11 ± 0.2 | – |
| COC(=O)Nc1nc2ccc(Oc3ccccc3CNC(=O)Nc3cc(C(C)(C)C)nn3-c3ccc(C)cc3)cc2s1 [9c, Methyl(6-(2-((3-(3-(tert-butyl)-1-(p-tolyl)-1H-pyrazol-5-yl)ureido)methyl)phenoxy)benzo[d]thiazol-2-yl)carbamate] | 1.02 ± 0.09 | – |
| Cc1ccc(-n2nc(C(C)(C)C)cc2NC(=O)NCc2cc(F)ccc2Oc2ccc3nc(NC(=O)NC(C)(C)C)sc3c2)cc1 [9i, 1-(3-(Tert-butyl)-1-(p-tolyl)-1H-pyrazol-5-yl)-3-(2-((2-(3-(tert-butyl)ureido)benzo[d]thiazol-6-yl)oxy)-5-fluorobenzyl)urea] | 7.54 ± 1.99 | – |
| Cc1ccc(-n2nc(C(C)(C)C)cc2NC(=O)NCc2cc(F)ccc2Oc2ccc3nc(NC(=O)NC4CCCCC4)sc3c2)cc1 [9h, 1-(3-(Tert-butyl)-1-(p-tolyl)-1H-pyrazol-5-yl)-3-(2-((2-(3-cyclohexylureido)benzo[d]thiazol-6-yl)oxy)-5-fluorobenzyl)urea] | 12.4 ± 0.18 | – |
| Cc1ccc(-n2nc(C(C)(C)C)cc2NC(=O)NCc2ccccc2Oc2ccc3nc(NC(=O)NCCCl)sc3c2)cc1 [9e, 1-(3-(Tert-butyl)-1-(p-tolyl)-1H-pyrazol-5-yl)-3-(2-((2-(3-(2-chloroethyl)ureido)benzo[d]thiazol-6-yl)oxy)benzyl)urea] | – | IC50 (MAPK14/p38α [1]; read-out: p38α IC50 (nM) ^a): 3.29 ± 0.25 nM |
| CC(C)(C)c1cc(NC(=O)NCc2ccccc2Oc2ccc3nc(N)sc3c2)n(-c2ccc([N+](=O)[O-])cc2)n1 [8a, 1-(2-((2-Aminobenzo[d]thiazol-6-yl)oxy)benzyl)-3-(3-(tert-butyl)-1-(4-nitrophenyl)-1H-pyrazol-5-yl)urea] | 2.878 ± 0.01 | – |
| COC(=O)Nc1nc2ccc(Oc3ccccc3CNC(=O)Nc3cc(C(C)(C)C)nn3-c3ccc([N+](=O)[O-])cc3)cc2s1 [9a, Methyl(6-(2-((3-(3-(tert-butyl)-1-(4-nitrophenyl)-1H-pyrazol-5-yl)ureido)methyl)phenoxy)benzo[d]thiazol-2-yl)carbamate] | 1.31 ± 0.09 | – |
| Cc1ccc(-n2nc(C(C)(C)C)cc2NC(=O)NCc2ccccc2Oc2ccc3nc(NC(=O)NC(C)(C)C)sc3c2)cc1 [9b, 1-(3-(Tert-butyl)-1-(p-tolyl)-1H-pyrazol-5-yl)-3-(2-((2-(3-(tert-butyl)ureido)benzo[d]thiazol-6-yl)oxy)benzyl)urea] | 6.16 ± 0.07 | – |
| COC(=O)Nc1nc2ccc(Oc3ccc(F)cc3CNC(=O)Nc3cc(C(C)(C)C)nn3-c3ccc(C)cc3)cc2s1 [9j, Methyl(6-(2-((3-(3-(tert-butyl)-1-(p-tolyl)-1H-pyrazol-5-yl)ureido)methyl)-4-fluorophenoxy)benzo[d]thiazol-2-yl)carbamate] | 4.28 ± 1.14 | – |
